From patent US8841309B2, “Substituted pyrazines and their use in the treatment of disease” (Boehringer Ingelheim International GmbH, priority 2012, dated 2014)

What follows are compounds tested against T1, ENaC (Mus musculus, UniProt Q61180+Q9WU38+Q9WU39) (assay: Ussing chamber: short circuit current (I_sc) in mouse kidney M-1 cells, amiloride-sensitive). Details: compound applied to apical solution, 37° C.
T1 construct: Mouse kidney M-1 cells were cultivated in DMEM containing 5% FCS and 5 μM dexamethasone; endogenous in cells; host or cells: mouse kidney M-1 cells
T1 sequence (Q61180 1-699): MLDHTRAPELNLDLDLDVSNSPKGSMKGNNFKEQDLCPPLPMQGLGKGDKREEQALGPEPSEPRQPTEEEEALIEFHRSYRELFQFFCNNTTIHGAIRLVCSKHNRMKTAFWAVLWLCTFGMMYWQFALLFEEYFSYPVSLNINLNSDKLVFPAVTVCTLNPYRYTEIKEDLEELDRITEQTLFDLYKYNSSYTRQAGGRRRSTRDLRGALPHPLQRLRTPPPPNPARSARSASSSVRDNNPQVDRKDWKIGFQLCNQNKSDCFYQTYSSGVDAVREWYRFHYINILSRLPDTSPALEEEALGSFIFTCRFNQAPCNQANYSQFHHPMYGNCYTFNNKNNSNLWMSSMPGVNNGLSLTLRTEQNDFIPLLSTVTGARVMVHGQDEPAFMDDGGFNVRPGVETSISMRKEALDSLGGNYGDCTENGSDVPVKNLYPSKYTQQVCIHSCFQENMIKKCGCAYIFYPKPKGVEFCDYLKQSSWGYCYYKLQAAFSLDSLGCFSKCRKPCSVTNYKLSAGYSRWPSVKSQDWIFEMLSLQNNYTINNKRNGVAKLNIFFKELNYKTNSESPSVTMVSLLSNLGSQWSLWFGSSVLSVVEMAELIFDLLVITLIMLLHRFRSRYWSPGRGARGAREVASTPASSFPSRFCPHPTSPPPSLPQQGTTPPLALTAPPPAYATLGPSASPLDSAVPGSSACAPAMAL
T1 sequence (Q9WU38 1-638): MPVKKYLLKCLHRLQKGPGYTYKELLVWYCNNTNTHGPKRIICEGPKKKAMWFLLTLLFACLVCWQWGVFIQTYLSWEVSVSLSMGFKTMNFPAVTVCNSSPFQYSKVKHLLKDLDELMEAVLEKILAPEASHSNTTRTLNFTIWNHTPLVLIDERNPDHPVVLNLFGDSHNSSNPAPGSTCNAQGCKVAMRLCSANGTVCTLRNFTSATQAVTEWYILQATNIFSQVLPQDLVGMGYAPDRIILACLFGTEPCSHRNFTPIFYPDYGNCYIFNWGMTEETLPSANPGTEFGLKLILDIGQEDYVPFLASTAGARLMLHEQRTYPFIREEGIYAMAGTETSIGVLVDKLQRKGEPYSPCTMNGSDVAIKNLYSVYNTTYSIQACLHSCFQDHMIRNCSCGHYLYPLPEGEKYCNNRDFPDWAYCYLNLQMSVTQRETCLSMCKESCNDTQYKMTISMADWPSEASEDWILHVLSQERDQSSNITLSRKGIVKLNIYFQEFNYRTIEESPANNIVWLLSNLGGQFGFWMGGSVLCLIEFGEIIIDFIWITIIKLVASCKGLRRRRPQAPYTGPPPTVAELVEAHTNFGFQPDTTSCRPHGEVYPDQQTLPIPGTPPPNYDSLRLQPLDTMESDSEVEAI
T1 sequence (Q9WU39 1-655): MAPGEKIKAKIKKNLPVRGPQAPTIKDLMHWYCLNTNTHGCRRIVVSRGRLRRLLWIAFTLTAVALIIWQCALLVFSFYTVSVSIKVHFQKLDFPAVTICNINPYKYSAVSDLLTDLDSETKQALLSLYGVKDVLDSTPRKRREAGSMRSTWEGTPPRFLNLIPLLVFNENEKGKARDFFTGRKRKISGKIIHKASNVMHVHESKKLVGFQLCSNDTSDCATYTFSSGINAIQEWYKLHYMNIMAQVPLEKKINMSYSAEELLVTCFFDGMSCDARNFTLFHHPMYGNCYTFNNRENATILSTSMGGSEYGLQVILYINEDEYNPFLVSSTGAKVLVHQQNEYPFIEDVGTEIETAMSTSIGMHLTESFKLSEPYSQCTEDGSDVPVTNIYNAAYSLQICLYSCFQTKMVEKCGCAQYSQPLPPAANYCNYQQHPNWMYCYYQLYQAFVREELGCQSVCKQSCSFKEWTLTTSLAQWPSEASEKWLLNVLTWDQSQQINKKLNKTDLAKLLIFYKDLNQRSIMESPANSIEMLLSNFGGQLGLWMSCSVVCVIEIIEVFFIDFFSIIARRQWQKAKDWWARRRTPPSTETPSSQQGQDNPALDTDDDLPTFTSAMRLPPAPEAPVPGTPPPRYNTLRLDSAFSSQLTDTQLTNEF
Type: cell-based
Experimental: Ussing Chamber: Mouse kidney M-1 cells were cultivated in DMEM containing 5% FCS and 5 μM dexamethasone for 10 to 12 days on polyester transwell filters. Filters were inserted into a teflon-coated well-plate which fit into the in-house ussing chamber system. Prior to measurement the medium of M-1 cells was replaced with Caco-2 transport buffer (Invitrogen, Germany). During measurements, the Ussing chamber temperature was kept at 37° C. Short circuit currents (I_sc) were measured in the voltage-clamp mode using an in-house built amplifier (Boehringer Ingelheim, Biberach) with the software package Lab View for data acquisition and analysis. The transepithelial electrical resistance (TEER) was determined by the application of voltage steps of ±5 mV every 5 sec. Compounds were administered at a final concentration of 3 μM or at increasing concentrations (1-3-10 μM) to the apical solution. At the end of each experiment the amiloride sensitive I_SC was measured by adding 3 μM amiloride to the apical compartment. Results are expressed as inhibition in percent of the amiloride effect or as IC50.
With `C[N+]1(CC(=O)Nc2cccc(F)c2)CCC[C@H](NC(N)=NC(=O)c2nc(Cl)c(N)nc2N)C1` (mixture of isomers) [Example 70.4] the IC50 was 31 nM.
With `C[N+]1(CC(=O)NCc2ccc(Cl)cc2)CCC[C@@H](N/C(N)=N/C(=O)c2nc(Cl)c(N)nc2N)C1` (mixture of isomers) [Example 70.5] the IC50 was 45 nM.
In the case of `CCNC(=O)C[N+]1(C)CCC[C@H](N/C(N)=N/C(=O)c2nc(Cl)c(N)nc2N)C1` (mixture of isomers) [Example 70.6], the IC50 is reported as 46 nM.
Compound `C[N+]1(CC(=O)NCc2ccc(Cl)cc2)CCC[C@H](N/C(N)=N/C(=O)c2nc(Cl)c(N)nc2N)C1` (mixture of isomers) [Example 71.1] has an IC50 of 30.6 nM.
With `C[N+]1(Cc2ccccc2)CCC[C@H](N/C(N)=N/C(=O)c2nc(Cl)c(N)nc2N)C1` (stereo in doubt) [Example 71, (S)-1-Benzyl-3-[N′-(3,5-diamino-6-chloro-pyrazine-2-carbonyl)-guanidino]-1-methyl-piperidinium chloride] the IC50 was 81 nM.
`COC(=O)c1cccc(C[N+]2(C)CCC[C@H](N/C(N)=N/C(=O)c3nc(Cl)c(N)nc3N)C2)c1` (stereo in doubt) [Example 72, (S)-3-[N′-(3,5-Diamino-6-chloro-pyrazine-2-carbonyl)-guanidino]-1-(3-methoxycarbonyl-benzyl)-1-methyl-piperidinium chloride] was tested, and the IC50 was 122 nM.
`N/C(=N\C(=O)c1nc(Cl)c(N)nc1N)NC1C[N+]2(CC(=O)O)CCC1CC2` (centres unmarked) [Example 1, 1-Carboxymethyl-3-[N′-(3,5-diamino-6-chloro-pyrazine-2-carbonyl)-guanidino]-1-azoniabicyclo[2.2.2]octane bromide] was tested, and the IC50 was 468 nM.
Work on `COc1cc(C[N+]23CCC(CC2)C(N/C(N)=N/C(=O)c2nc(Cl)c(N)nc2N)C3)cc(OC)c1OC` (centres unmarked) [Example 2, 3-[N′-(3,5-Diamino-6-chloro-pyrazine-2-carbonyl)-guanidino]-1-(3,4,5-trimethoxybenzyl)-1-azoniabicyclo[2.2.2]octane chloride] yielded an IC50 of 126 nM.
With `N/C(=N\C(=O)c1nc(Cl)c(N)nc1N)NC1C[N+]2(CC(=O)Nc3ccccc3)CCC1CC2` (centres unmarked) [Example 3, 3-[N′-(3,5-Diamino-6-chloro-pyrazine-2-carbonyl)-guanidino]-1-phenylcarbamoylmethyl-1-azoniabicyclo[2.2.2]octane chloride] the IC50 was 26 nM.
For `N/C(=N\C(=O)c1nc(Cl)c(N)nc1N)NC1C[N+]2(Cc3ccccc3)CCC1CC2` (centres unmarked) [Example 4, 1-Benzyl-3-[N′-(3,5-diamino-6-chloro-pyrazine-2-carbonyl)-guanidino]-1-azoniabicyclo[2.2.2]octane bromide], the IC50 was 43 nM.
Work on `N/C(=N\C(=O)c1nc(Cl)c(N)nc1N)N[C@H]1C[N+]2(Cc3ccccc3)CCC1CC2` [Example 5, (R)-1-Benzyl-3-[N′-(3,5-diamino-6-chloro-pyrazine-2-carbonyl)-guanidino]-1-azoniabicyclo[2.2.2]octane bromide] yielded an IC50 of 460 nM.
`N/C(=N\C(=O)c1nc(Cl)c(N)nc1N)N[C@@H]1C[N+]2(Cc3ccccc3)CCC1CC2` [Example 6, (S)-1-Benzyl-3-[N′-(3,5-diamino-6-chloro-pyrazine-2-carbonyl)-guanidino]-1-azoniabicyclo[2.2.2]octane bromide] showed an IC50 of 28 nM.
For `N/C(=N\C(=O)c1nc(Br)c(N)nc1N)N[C@@H]1C[N+]2(Cc3ccccc3)CCC1CC2` [Example 6.1, (S)-1-Benzyl-3-[N′-(3,5-diamino-6-bromo-pyrazine-2-carbonyl)-guanidino]-1-azoniabicyclo[2.2.2]octane bromide], the IC50 was 29 nM.
`COc1ccc(C[N+]23CCC(CC2)[C@H](N/C(N)=N/C(=O)c2nc(Cl)c(N)nc2N)C3)cc1` [Example 7, (S)-3-[N′(3,5-Diamino-6-chloro-pyrazine-2-carbonyl)-guanidino]-1-(4-methoxybenzyl)-1-azoniabicyclo[2.2.2]octane chloride] gave an IC50 of 20 nM.
